# Read-outs that look alike come from different tables or passages of the source.
# Assays:
# CYP3A4 = CYP3A4 (Homo sapiens, UniProt P08684); conditions: in vitro; cited from earlier work
# [1] = for AUC(0-inf) / AUC(0-t) / half-life / Tmax: male, human, in vivo; for AUC(0-inf): AUCinf; for AUC(0-inf) / AUC(0-t): geometric mean; for AUC(0-t): AUClast; for half-life: t 1/2, geometric mean
# CYP1A2 = conditions: cited from earlier work
# CYP enzyme = conditions: in vitro studies; cited from earlier work
# CYP2C9 = CYP2C9 (Homo sapiens, UniProt P11712); conditions: in vitro; cited from earlier work
# Chain of CYP2C9 (P11712 whole entry): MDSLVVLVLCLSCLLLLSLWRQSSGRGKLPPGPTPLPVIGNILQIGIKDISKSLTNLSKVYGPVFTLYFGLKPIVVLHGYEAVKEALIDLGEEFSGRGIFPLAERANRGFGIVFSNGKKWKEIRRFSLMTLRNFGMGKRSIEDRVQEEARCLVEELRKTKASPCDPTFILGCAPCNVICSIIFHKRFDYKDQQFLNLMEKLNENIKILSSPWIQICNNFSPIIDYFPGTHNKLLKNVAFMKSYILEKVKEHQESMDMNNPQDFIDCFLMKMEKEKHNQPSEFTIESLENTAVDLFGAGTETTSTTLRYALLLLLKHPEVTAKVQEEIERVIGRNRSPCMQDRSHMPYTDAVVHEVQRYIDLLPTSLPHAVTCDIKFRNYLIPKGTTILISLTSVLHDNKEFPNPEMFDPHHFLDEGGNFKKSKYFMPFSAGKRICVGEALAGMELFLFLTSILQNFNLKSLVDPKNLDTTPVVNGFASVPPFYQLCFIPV
# [2] = healthy male subjects, plasma, after 2 weeks of fermented red ginseng
# [3] = healthy male subjects, plasma, before fermented red ginseng
# [4] = After FRG, healthy male subjects, plasma, after 2 weeks of fermented red ginseng
# [5] = Before FRG, healthy male subjects, plasma, before fermented red ginseng
# [6] = t max (median), Before FRG, healthy male subjects, plasma, before fermented red ginseng
# [7] = t max (median), After FRG, healthy male subjects, plasma, after 2 weeks of fermented red ginseng
# Chain of CYP3A4 (P08684 whole entry): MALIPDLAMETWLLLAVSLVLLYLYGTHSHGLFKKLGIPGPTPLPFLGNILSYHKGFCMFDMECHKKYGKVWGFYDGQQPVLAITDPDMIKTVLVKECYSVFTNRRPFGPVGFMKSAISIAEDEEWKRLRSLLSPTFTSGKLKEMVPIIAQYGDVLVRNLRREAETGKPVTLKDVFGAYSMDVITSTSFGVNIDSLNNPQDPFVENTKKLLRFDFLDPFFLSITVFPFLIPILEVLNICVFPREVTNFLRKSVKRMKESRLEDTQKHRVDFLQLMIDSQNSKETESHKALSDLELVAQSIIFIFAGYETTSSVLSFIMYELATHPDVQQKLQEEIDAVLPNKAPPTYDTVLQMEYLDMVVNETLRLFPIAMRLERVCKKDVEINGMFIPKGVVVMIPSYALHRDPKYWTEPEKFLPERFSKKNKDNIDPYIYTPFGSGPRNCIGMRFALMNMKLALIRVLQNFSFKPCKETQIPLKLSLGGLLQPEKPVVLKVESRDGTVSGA
SMILES,"AUCinf, geometric mean ratio, After FRG: Before FRG (90% CI) ([1]; healthy male subjects, plasma)","AUClast, geometric mean ratio, After FRG: Before FRG (90% CI) ([1]; healthy male subjects, plasma)","C max, geometric mean ratio, After FRG: Before FRG (90% CI) ([1]; healthy male subjects, plasma)","AUC(0-inf) [1, 4]","AUC(0-inf) [1, 5]","AUC(0-t) [1, 4]","AUC(0-t) [1, 5]","half-life [1, 4]","half-life [1, 5]",other results
"CC(C)=CCCC(C)(O)[C@H]1CC[C@]2(C)[C@@H]1[C@H](O)C[C@@H]1[C@@]3(C)CC[C@H](O)C(C)(C)[C@@H]3CC[C@]12C (stereo in doubt) [PPD, protopanaxadiol]",,,,,,,,,,inhibition of CYP3A4 activity (CYP3A4): potent inhibition
OCc1ncc2n1-c1ccc(Cl)cc1C(c1ccccc1F)=NC2 [1‐hydroxymidazolam],0.924 (0.791–1.080),0.944 (0.805–1.107),0.750 (0.583–0.966),,,,,,,"AUCinf, geometric mean, After FRG [1, 2]: 74.221 ng·h/mL; AUClast, geometric mean, After FRG [1, 2]: 69.474 ng·h/mL; t 1/2, geometric mean, After FRG [1, 2]: 0.678 h; t max (median), After FRG [1, 2]: 0.517 h; AUCinf, geometric mean, Before FRG [1, 3]: 80.311 ng·h/mL; AUClast, geometric mean, Before FRG [1, 3]: 73.587 ng·h/mL; t 1/2, geometric mean, Before FRG [1, 3]: 0.728 h; t max (median), Before FRG [1, 3]: 0.500 h"
COc1ccc2nc([S+]([O-])Cc3ncc(CO)c(OC)c3C)[nH]c2c1 (stereo not shown) [5‐hydroxyomeprazole],1.050 (0.961–1.147),0.979 (0.918–1.045),0.945 (0.859–1.039),,,,,,,"AUCinf, geometric mean, After FRG [1, 2]: 283.859 ng·h/mL; AUClast, geometric mean, After FRG [1, 2]: 239.033 ng·h/mL; t 1/2, geometric mean, After FRG [1, 2]: 2.716 h; t max (median), After FRG [1, 2]: 3.000 h; AUCinf, geometric mean, Before FRG [1, 3]: 270.368 ng·h/mL; AUClast, geometric mean, Before FRG [1, 3]: 244.051 ng·h/mL; t 1/2, geometric mean, Before FRG [1, 3]: 1.971 h; t max (median), Before FRG [1, 3]: 3.000 h"
"Cn1c(=O)c2c(ncn2C)n(C)c1=O [Caffeine, caffeine]",1.165 (1.002–1.356),1.128 (0.997–1.277),1.002 (0.857–1.171),57500 ng·h/mL,49300 ng·h/mL,51300 ng·h/mL,45500 ng·h/mL,6.94 h,5.5 h,"fraction metabolized to paraxanthine by CYP1A2 (CYP1A2): over 95%; Tmax [1, 6]: 0.5 h"
"COc1ccc2c(c1)[C@]13CCCC[C@@H]1[C@H](C2)N(C)CC3 [Dextromethorphan, dextromethorphan]",0.869 (0.638–1.184),0.907 (0.681–1.209),0.849 (0.688–1.047),43.5 ng·h/mL,50.1 ng·h/mL,17.1 ng·h/mL,18.9 ng·h/mL,,,"t 1/2, geometric mean, After FRG [1, 2]: 7.006 h; t 1/2, geometric mean, Before FRG [1, 3]: 7.540 h; Tmax [1]: 2 h"
"CN1CC[C@@]23CCCC[C@@H]2[C@@H]1Cc1ccc(O)cc13 [Dextrorphan, dextrorphan]",1.042 (0.932–1.164),1.044 (0.926–1.176),1.024 (0.876–1.198),66.1 ng·h/mL,63.5 ng·h/mL,60.3 ng·h/mL,57.7 ng·h/mL,3.43 h,3.92 h,"t max (median), Before FRG [1, 3]: 2.000 h"
CCCCc1nc(Cl)c(C(=O)O)n1Cc1ccc(-c2ccccc2-c2nn[nH]n2)cc1 [EXP3174],0.813 (0.687–0.963),0.811 (0.684–0.963),0.832 (0.694–0.997),2610 ng·h/mL,3210 ng·h/mL,2500 ng·h/mL,3080 ng·h/mL,,,"Tmax [1, 7]: 4 h; Tmax [1, 6]: 3 h"
"CCCCc1nc(Cl)c(CO)n1Cc1ccc(-c2ccccc2-c2nn[nH]n2)cc1 [Losartan, losartan]",1.047 (0.887–1.237),1.048 (0.887–1.239),0.974 (0.797–1.190),549 ng·h/mL,524 ng·h/mL,542 ng·h/mL,517 ng·h/mL,1.94 h,1.86 h,"Tmax [1, 7]: 1.5 h; Tmax [1, 6]: 1.5 h"
"Cc1ncc2n1-c1ccc(Cl)cc1C(c1ccccc1F)=NC2 [Midazolam, midazolam]",1.138 (1.007–1.285),1.157 (1.022–1.309),0.873 (0.732–1.041),126 ng·h/mL,110 ng·h/mL,119 ng·h/mL,103 ng·h/mL,2.96 h,3.3 h,
"COc1ccc2[nH]c([S+]([O-])Cc3ncc(C)c(OC)c3C)nc2c1 (stereo not shown) [Omeprazole, omeprazole]",0.936 (0.819–1.069),0.931 (0.812–1.067),0.892 (0.747–1.066),1280 ng·h/mL,1370 ng·h/mL,1260 ng·h/mL,1350 ng·h/mL,1.22 h,1.19 h,"t max (median), Before FRG [1, 3]: 2.000 h"
"CC(C)=CCC[C@](C)(O)[C@H]1CC[C@]2(C)[C@@H]1[C@H](O)C[C@@H]1[C@@]3(C)CC[C@H](O)C(C)(C)[C@@H]3[C@@H](O)C[C@]12C [PPT, protopanaxatriol]",,,,,,,,,,inhibition of CYP3A4 activity (CYP3A4): potent inhibition
"Cn1c(=O)[nH]c2ncn(C)c2c1=O [Paraxanthine, paraxanthine]",1.432 (1.125–1.823),1.017 (0.943–1.096),0.979 (0.906–1.057),53900 ng·h/mL,37600 ng·h/mL,24600 ng·h/mL,24200 ng·h/mL,20.7 h,11.8 h,"Tmax [1, 7]: 6 h"
"CC(C)=CCC[C@](C)(O[C@@H]1O[C@H](CO[C@@H]2OC[C@H](O)[C@H](O)[C@H]2O)[C@@H](O)[C@H](O)[C@H]1O)[C@H]1CC[C@]2(C)[C@@H]1[C@H](O)C[C@@H]1[C@@]3(C)CC[C@H](O[C@@H]4O[C@H](CO)[C@@H](O)[C@H](O)[C@H]4O[C@@H]4O[C@H](CO)[C@@H](O)[C@H](O)[C@H]4O)C(C)(C)[C@@H]3CC[C@]12C [Rb2, ginsenoside Rb2]",,,,,,,,,,effect on CYP enzyme activity (CYP enzyme): do not affect
"CC(C)=CCC[C@](C)(O[C@@H]1O[C@H](CO[C@@H]2O[C@@H](CO)[C@H](O)[C@H]2O)[C@@H](O)[C@H](O)[C@H]1O)[C@H]1CC[C@]2(C)[C@@H]1[C@H](O)C[C@@H]1[C@@]3(C)CC[C@H](O[C@@H]4O[C@H](CO)[C@@H](O)[C@H](O)[C@H]4O[C@@H]4O[C@H](CO)[C@@H](O)[C@H](O)[C@H]4O)C(C)(C)[C@@H]3CC[C@]12C [Rc, ginsenoside Rc]",,,,,,,,,,effect on CYP enzyme activity (CYP enzyme): do not affect
"CC(C)=CCC[C@](C)(O[C@@H]1O[C@H](CO)[C@@H](O)[C@H](O)[C@H]1O)[C@H]1CC[C@]2(C)[C@@H]1[C@H](O)C[C@@H]1[C@@]3(C)CC[C@H](O)C(C)(C)[C@@H]3[C@@H](O[C@@H]3O[C@H](CO)[C@@H](O)[C@H](O)[C@H]3O)C[C@]12C [Rg1, ginsenoside Rg1]",,,,,,,,,,effect on CYP enzyme activity (CYP enzyme): do not affect
"CC(C)=CCC[C@](C)(O[C@@H]1O[C@H](CO)[C@@H](O)[C@H](O)[C@H]1O)[C@H]1CC[C@]2(C)[C@@H]1[C@H](O)C[C@@H]1[C@@]3(C)CC[C@H](O)C(C)(C)[C@@H]3CC[C@]12C [compound K, 20‐O‐(β‐D‐glucopyranosyl)‐20(S)‐protopanaxadiol]",,,,,,,,,,inhibition of CYP3A4 activity (CYP3A4): moderate inhibition; inhibition of CYP2C9 activity (CYP2C9): moderate inhibition
CC(C)=CCC[C@](C)(O[C@@H]1O[C@H](CO[C@@H]2O[C@H](CO)[C@@H](O)[C@H](O)[C@H]2O)[C@@H](O)[C@H](O)[C@H]1O)[C@H]1CC[C@]2(C)[C@@H]1[C@H](O)C[C@@H]1[C@@]3(C)CC[C@H](O[C@@H]4O[C@H](CO)[C@@H](O)[C@H](O)[C@H]4O[C@@H]4O[C@H](CO)[C@@H](O)[C@H](O)[C@H]4O)C(C)(C)[C@@H]3CC[C@]12C [ginsenoside Rb1],,,,,,,,,,effect on CYP enzyme activity (CYP enzyme): do not affect
CC(C)=CCC[C@](C)(O)[C@H]1CC[C@]2(C)[C@@H]1[C@H](O)C[C@@H]1[C@@]3(C)CC[C@H](O[C@@H]4O[C@H](CO)[C@@H](O)[C@H](O)[C@H]4O)C(C)(C)[C@@H]3CC[C@]12C [ginsenoside Rh2],,,,,,,,,,inhibition of CYP3A4 activity (CYP3A4): moderate inhibition; inhibition of CYP2C9 activity (CYP2C9): moderate inhibition
